Measured values reported in patent US8962596B2 (Array BioPharma Inc., priority 2010, dated 2015).

Experiments:
Assay type in all cases: biochemical
JAK1 = biological target: T1, JAK1 (Homo sapiens, UniProt P23458); experiment: JAK1 Inhibition Assay (Omnia kinase fluorescence peptide substrate assay); details: averaged IC50 ranges; assay of Example B; 40 μM (Km app) or 1 mM ATP, 15 nM JAK1
T1 construct: purchased Invitrogen Corporation, Carlsbad, Calif; PV4775

JAK2 = biological target: T2, JAK2 (Homo sapiens, UniProt O60674); experiment: JAK2 Inhibition Assay (Omnia kinase fluorescence peptide substrate assay); details: averaged IC50 ranges; assay of Example C; 25 μM (Km app) or 1 mM ATP, 5 nM JAK2
T2 construct: purchased Invitrogen Corporation, Carlsbad, Calif; PV4288
T2 sequence (O60674 whole entry): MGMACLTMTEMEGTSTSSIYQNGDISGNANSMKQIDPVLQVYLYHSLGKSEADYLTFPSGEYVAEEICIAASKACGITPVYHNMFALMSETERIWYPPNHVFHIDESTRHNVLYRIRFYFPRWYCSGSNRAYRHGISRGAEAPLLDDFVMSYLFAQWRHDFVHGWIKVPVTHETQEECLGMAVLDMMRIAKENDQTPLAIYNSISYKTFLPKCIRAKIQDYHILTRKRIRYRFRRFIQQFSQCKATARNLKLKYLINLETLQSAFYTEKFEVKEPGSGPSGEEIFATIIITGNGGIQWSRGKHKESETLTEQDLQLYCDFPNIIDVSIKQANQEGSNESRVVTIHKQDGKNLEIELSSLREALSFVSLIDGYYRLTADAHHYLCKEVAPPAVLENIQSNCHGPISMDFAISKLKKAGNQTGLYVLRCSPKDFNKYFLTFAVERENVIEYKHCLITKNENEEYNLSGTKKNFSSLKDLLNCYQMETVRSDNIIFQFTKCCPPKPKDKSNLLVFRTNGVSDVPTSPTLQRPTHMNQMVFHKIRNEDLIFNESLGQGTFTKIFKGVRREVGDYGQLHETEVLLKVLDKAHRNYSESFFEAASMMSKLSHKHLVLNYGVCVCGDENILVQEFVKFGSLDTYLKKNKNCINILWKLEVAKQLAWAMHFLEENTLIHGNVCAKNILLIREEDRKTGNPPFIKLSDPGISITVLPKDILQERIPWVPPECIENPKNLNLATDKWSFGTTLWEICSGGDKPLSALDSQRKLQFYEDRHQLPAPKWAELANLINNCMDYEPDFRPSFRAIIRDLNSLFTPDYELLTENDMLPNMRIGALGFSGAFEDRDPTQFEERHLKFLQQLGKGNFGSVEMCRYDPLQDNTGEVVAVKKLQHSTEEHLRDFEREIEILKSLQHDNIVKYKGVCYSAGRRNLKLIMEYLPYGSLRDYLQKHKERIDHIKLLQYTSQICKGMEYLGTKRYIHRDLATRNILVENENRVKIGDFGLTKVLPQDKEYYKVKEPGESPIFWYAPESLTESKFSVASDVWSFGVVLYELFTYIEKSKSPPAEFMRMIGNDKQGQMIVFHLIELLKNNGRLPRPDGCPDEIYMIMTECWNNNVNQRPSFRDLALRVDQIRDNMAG
How it was run: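 A 10-point, 3-fold compound series (top 10 μM, 2% DMSO) was tested against 5 nM JAK2 with 10 μM Omnia Y7 substrate and either 1 mM or 25 μM (Km app) ATP. Buffer: pH 7.4 HEPES, MgCl2, Triton X-100, DTT. Sox fluorescence was monitored kinetically for 45 min; IC50 is the concentration giving 50 POC on a 4-parameter fit.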

JAK3 = biological target: T3, JAK3 (Homo sapiens, UniProt P52333); experiment: JAK3 Inhibition Assay (Omnia kinase fluorescence peptide substrate assay); details: averaged IC50 ranges; assay of Example D; 10 μM (Km app) or 1 mM ATP, 2.5 nM JAK3
T3 construct: purchased Invitrogen Corporation, Carlsbad, Calif; PV4080
T3 sequence (P52333 1-1124): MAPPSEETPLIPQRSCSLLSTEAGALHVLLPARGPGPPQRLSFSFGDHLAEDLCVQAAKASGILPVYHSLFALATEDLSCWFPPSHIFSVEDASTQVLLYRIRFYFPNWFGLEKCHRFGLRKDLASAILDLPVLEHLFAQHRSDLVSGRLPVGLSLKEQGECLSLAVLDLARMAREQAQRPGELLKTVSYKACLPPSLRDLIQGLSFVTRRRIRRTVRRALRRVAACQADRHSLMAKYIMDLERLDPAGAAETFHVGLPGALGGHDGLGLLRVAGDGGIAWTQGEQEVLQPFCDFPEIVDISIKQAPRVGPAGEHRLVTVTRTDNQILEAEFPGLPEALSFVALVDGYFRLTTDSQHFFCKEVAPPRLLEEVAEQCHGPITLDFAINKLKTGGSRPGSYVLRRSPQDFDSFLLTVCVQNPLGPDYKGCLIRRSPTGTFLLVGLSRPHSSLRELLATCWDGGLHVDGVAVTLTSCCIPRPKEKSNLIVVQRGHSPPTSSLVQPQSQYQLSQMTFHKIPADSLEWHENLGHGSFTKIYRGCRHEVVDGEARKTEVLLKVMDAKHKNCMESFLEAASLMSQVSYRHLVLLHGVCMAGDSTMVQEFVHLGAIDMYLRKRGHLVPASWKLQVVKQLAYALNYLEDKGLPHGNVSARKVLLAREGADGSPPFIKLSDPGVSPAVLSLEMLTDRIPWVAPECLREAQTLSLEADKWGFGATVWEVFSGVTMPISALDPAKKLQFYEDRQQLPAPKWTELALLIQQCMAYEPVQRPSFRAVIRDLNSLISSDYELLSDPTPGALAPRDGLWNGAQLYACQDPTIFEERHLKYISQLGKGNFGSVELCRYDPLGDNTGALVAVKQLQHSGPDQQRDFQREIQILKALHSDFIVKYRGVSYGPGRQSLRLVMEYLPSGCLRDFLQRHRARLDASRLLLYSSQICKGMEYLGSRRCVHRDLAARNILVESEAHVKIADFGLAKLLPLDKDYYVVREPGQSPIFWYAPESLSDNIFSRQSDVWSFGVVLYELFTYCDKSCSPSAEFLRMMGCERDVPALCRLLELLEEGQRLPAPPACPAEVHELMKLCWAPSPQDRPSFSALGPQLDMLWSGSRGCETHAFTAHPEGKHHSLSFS
How it was run: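 Kinase at 2.5 nM with 10 µM Omnia Y7 peptide and 10 µM (Km app) or 1 mM ATP in 25 mM HEPES pH 7.4, 10 mM MgCl2, 1 mM DTT, 0.01% Triton X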

Human Tyk2 kinase domain = biological target: T4, Human Tyk2 kinase domain (Homo sapiens, UniProt P29597); experiment: Tyk2 Inhibition Assay (Omnia kinase fluorescence peptide substrate assay); details: averaged IC50 ranges; assay of Example A; 10 μM (Km app) or 1 mM ATP, 2 nM Tyk2
T4 construct: comprising amino acids 886 to 1187 with 10 additional histidine residues; 10xHis (histidine tag) (C, cleaved yes); made in house
T4 sequence (P29597 886-1187): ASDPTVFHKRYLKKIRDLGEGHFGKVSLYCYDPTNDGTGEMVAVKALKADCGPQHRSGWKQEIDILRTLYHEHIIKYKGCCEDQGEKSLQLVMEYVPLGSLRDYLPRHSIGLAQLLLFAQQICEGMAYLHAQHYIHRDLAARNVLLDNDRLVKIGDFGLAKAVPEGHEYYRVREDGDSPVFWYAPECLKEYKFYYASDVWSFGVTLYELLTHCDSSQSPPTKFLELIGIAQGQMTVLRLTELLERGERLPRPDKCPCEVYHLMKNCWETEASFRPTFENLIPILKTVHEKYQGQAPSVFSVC
How it was run: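 2 nM His-tag-cleaved kinase domain (aa 886–1187) with 8 μM Omnia Y12 peptide, 10 μM (Km app) or 1 mM ATP, pH 7.4 HEPES/10 mM MgCl2, 2% DMSO. Fluorescence (ex 360/em 485 nm) every 50 s for 45 min; IC50 from 4-parameter fit of POC, top dose 10 μM.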

T1 sequence (P23458 whole entry): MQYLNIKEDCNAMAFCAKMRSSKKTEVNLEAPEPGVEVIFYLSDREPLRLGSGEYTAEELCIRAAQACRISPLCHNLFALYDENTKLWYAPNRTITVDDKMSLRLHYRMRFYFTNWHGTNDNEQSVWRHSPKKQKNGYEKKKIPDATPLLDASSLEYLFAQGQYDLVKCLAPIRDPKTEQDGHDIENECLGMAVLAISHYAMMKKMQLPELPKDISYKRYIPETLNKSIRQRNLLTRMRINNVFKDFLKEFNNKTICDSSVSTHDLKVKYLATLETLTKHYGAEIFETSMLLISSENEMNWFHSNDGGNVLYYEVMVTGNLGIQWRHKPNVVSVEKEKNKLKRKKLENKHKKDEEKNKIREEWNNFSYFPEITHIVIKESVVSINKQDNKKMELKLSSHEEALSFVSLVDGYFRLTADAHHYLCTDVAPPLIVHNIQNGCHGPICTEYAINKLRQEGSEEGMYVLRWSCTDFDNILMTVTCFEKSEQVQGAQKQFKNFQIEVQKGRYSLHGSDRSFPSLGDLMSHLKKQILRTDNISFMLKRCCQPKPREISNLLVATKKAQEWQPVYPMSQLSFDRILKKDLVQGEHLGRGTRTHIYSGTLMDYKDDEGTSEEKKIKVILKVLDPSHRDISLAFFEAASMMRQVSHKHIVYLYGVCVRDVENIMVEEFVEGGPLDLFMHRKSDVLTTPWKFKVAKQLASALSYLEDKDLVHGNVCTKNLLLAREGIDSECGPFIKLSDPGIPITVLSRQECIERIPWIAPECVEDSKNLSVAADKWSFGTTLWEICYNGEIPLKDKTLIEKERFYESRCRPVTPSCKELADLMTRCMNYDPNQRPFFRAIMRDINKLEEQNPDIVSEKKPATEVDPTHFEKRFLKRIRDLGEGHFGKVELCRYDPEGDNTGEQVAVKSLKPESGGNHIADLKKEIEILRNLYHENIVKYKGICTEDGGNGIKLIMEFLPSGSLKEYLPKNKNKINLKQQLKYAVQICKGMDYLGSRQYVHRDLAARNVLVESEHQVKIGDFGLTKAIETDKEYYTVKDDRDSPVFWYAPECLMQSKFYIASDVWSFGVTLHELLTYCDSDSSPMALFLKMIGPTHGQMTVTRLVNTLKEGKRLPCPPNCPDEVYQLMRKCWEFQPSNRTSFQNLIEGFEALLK

SMILES | IC50 (JAK1) [nM] | IC50 (JAK2) [nM] | IC50 (JAK3) [nM] | IC50 (Human Tyk2 kinase domain) [nM]
N#CCC(C1CC1)n1cc(-c2nc(-c3cnn(Cc4cccnc4)c3)cc3nccn23)cn1 (stereo not shown) [Example 35, 3-cyclopropyl-3-(4-(7-(1-(pyridin-3-ylmethyl)-1H-pyrazol-4-yl)imidazo[1,2-c]pyrimidin-5-yl)-1H-pyrazol-1-yl)propanenitrile] | 100 to 1000 | 10 to 100 | 100 to 1000 | < 10
C#CCN1CC(CC#N)(n2cc(-c3nc(-c4cnn(C)c4)cc4nccn34)cn2)C1 [Example 76, 2-(3-(4-(7-(1-methyl-1H-pyrazol-4-yl)imidazo[1,2-c]pyrimidin-5-yl)-1H-pyrazol-1-yl)-1-(prop-2-ynyl)azetidin-3-yl)acetonitrile] | 100 to 1000 | 100 to 1000 | > 1000 | 10 to 100
N#CCC1(n2cc(-c3nc(-c4cnn(C5COC5)c4)cc4nccn34)cn2)CN(CC(F)(F)F)C1 [Example 105, 2-(3-(4-(7-(1-(Oxetan-3-yl)-1H-pyrazol-4-yl)imidazo[1,2-c]pyrimidin-5-yl)-1H-pyrazol-1-yl)-1-(2,2,2-trifluoroethyl)azetidin-3-yl)acetonitrile] | 100 to 1000 | 10 to 100 | > 1000 | < 10
C[Si](C)(C)CCOCn1cc(-c2cc3nccn3c(-c3cnn(C(CC#N)C4CC4)c3)n2)cn1 (stereo not shown) [Example 32, 3-cyclopropyl-3-(4-(7-(1-((2-(trimethylsilyl)ethoxy)methyl)-1H-pyrazol-4-yl)imidazo[1,2-c]pyrimidin-5-yl)-1H-pyrazol-1-yl)propanenitrile] | 100 to 1000 | 10 to 100 | 100 to 1000 | 10 to 100
Cn1cc(-c2cc3nccn3c(-c3cnn(C4(CC#N)CC5(CCOCC5)C4)c3)n2)cn1 [Example 150, 2-(2-(4-(7-(1-methyl-1H-pyrazol-4-yl)imidazo[1,2-c]pyrimidin-5-yl)-1H-pyrazol-1-yl)-7-oxaspiro[3.5]nonan-2-yl)acetonitrile] | 100 to 1000 | 10 to 100 | > 1000 | < 10
Cn1cc(-c2cc3ncc(C#N)n3c(-c3cnn(C(CC#N)C4CC4)c3)n2)cn1 (stereo not shown) [Example 26, 5-(1-(2-cyano-1-cyclopropylethyl)-1H-pyrazol-4-yl)-7-(1-methyl-1H-pyrazol-4-yl)imidazo[1,2-c]pyrimidine-3-carbonitrile] | > 1000 | 100 to 1000 | > 1000 | 100 to 1000
Cn1cc(-c2cc3nccn3c(-c3cnn(C4(CC#N)CN(CCCF)C4)c3)n2)cn1 [Example 74, 2-(1-(3-fluoropropyl)-3-(4-(7-(1-methyl-1H-pyrazol-4-yl)imidazo[1,2-c]pyrimidin-5-yl)-1H-pyrazol-1-yl)azetidin-3-yl)acetonitrile] | 100 to 1000 | 100 to 1000 | > 1000 | < 10
N#CCC(C1CC1)n1cc(-c2nc(-c3cnn(C4COC4)c3)cc3nccn23)cn1 (stereo not shown) [Example 38, 3-Cyclopropyl-3-(4-(7-(1-(oxetan-3-yl)-1H-pyrazol-4-yl)imidazo[1,2-c]pyrimidin-5-yl)-1H-pyrazol-1-yl)propanenitrile] | 100 to 1000 | 10 to 100 | 100 to 1000 | < 10
CCCN1CCC(CC#N)(n2cc(-c3nc(-c4cnn(C)c4)cc4nccn34)cn2)CC1 [Example 30, 2-(4-(4-(7-(1-methyl-1H-pyrazol-4-yl)imidazo[1,2-c]pyrimidin-5-yl)-1H-pyrazol-1-yl)-1-propylpiperidin-4-yl)acetonitrile] | > 1000 | > 1000 | > 1000 | 100 to 1000

Further lines, results first:

IC50 (JAK1) [nM] | IC50 (JAK2) [nM] | IC50 (JAK3) [nM] | IC50 (Human Tyk2 kinase domain) [nM] | SMILES
10 to 100 | 10 to 100 | 100 to 1000 | < 10 | Cn1cc(-c2cc3ncc(Cl)n3c(-c3cnn(C(CC#N)C4CC4)c3)n2)cn1 (stereo not shown) [Example 25, 3-(4-(3-chloro-7-(1-methyl-1H-pyrazol-4-yl)imidazo[1,2-c]pyrimidin-5-yl)-1H-pyrazol-1-yl)-3-cyclopropylpropanenitrile]
100 to 1000 | 10 to 100 | > 1000 | < 10 | CCn1cc(-c2cc3nccn3c(-c3cnn(C4(CC#N)CN(CC(F)(F)F)C4)c3)n2)cn1 [Example 104, 2-(3-(4-(7-(1-Ethyl-1H-pyrazol-4-yl)imidazo[1,2-c]pyrimidin-5-yl)-1H-pyrazol-1-yl)-1-(2,2,2-trifluoroethyl)azetidin-3-yl)acetonitrile]
100 to 1000 | 10 to 100 | > 1000 | < 10 | Cn1cc(-c2cc3nccn3c(-c3cnn(C4(CC#N)CN(S(=O)(=O)CCC(F)(F)F)C4)c3)n2)cn1 [Example 98, 2-(3-(4-(7-(1-methyl-1H pyrazol-4-yl)imidazo[1,2-c]pyrimidin-5-yl)-1H-pyrazol-1-yl)-1-(3,3,3-trifluoropropylsulfonyl)azetidin-3-yl)acetonitrile]
10 to 100 | 10 to 100 | 100 to 1000 | 10 to 100 | Cn1cc(-c2cc3nccn3c(-c3cnn(C(CC#N)c4ccccc4Cl)c3)n2)cn1 (stereo not shown) [Example 12, 3-(2-chlorophenyl)-3-(4-(7-(1-methyl-1H-pyrazol-4-yl)imidazo[1,2-c]pyrimidin-5-yl)-1H-pyrazol-1-yl)propanenitrile]
10 to 100 | 10 to 100 | 100 to 1000 | < 10 | CC(CC#N)n1cc(-c2nc(-c3ccc(N4CCOCC4)cc3)cc3nccn23)cn1 (stereo not shown) [Example 118, 3-(4-(7-(4-morpholinophenyl)imidazo[1,2-c]pyrimidin-5-yl)-1H-pyrazol-1-yl)butanenitrile]
10 to 100 | 10 to 100 | > 1000 | < 10 | Cn1cc(-c2cc3nccn3c(-c3cnn(C(CC#N)C4CCC4)c3)n2)cn1 (stereo not shown) [Example 20, 3-cyclobutyl-3-(4-(7-(1-methyl-1H-pyrazol-4-yl)imidazo[1,2-c]pyrimidin-5-yl)-1H-pyrazol-1-yl)propanenitrile]
10 to 100 | 10 to 100 | 100 to 1000 | < 10 | Cn1cc(-c2cc3nccn3c(-c3cnn(C(CC#N)C4CC4)c3)n2)cn1 (single isomer, unassigned; enantiomer 2) [Example 4, Enantiomer 2 of 3-cyclopropyl-3-(4-(7-(1-methyl-1H-pyrazol-4-yl)imidazo[1,2-c]pyrimidin-5-yl)-1H-pyrazol-1-yl)propanenitrile (Peak 2)]
